Here are results for 23 compounds from PubChem BioAssay AID248 (DTP/NCI, 2004).

For the test, the system named is L1210 leukemia ip in BDF1 mice, survival T/C. In words: NCI In Vivo Anticancer Drug Screen. Data for tumor model L1210 Leukemia (intraperitoneal) in B6D2F1 (BDF1) mice. The following applies: endpoint: mean survival time, higher = longer survival. In outline:
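Ratio derived from survival: compound-dosed mice over vehicle-dosed mice, all bearing a transplantable tumor.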

Where [1] appears, read: dose: 100.0 mg/kg/injection, schedule: Q01DX001 (ip), vehicle: other.
The mark [2] stands for this setting: dose: 200.0 mg/kg/injection, schedule: Q01DX001 (ip), vehicle: other.
[3] abbreviates: dose: 50.0 mg/kg/injection, schedule: Q01DX009 (ip), vehicle: saline.
Setting [4] is: dose: 100.0 mg/kg/injection, schedule: Q01DX009 (ip), vehicle: saline.
The mark [5] stands for this setting: dose: 100.0 mg/kg/injection, schedule: Q04DX003 (ip), vehicle: saline.
Where [6] appears, read: dose: 200.0 mg/kg/injection, schedule: Q01DX009 (ip), vehicle: saline.
The mark [7] stands for this setting: dose: 200.0 mg/kg/injection, schedule: Q04DX003 (ip), vehicle: saline.
Where [8] appears, read: dose: 100.0 mg/kg/injection, schedule: Q01DX009 (ip), vehicle: saline with Tween-80.
[9] abbreviates: dose: 200.0 mg/kg/injection, schedule: Q01DX009 (ip), vehicle: saline with Tween-80.
[10] abbreviates: dose: 400.0 mg/kg/injection, schedule: Q01DX009 (ip), vehicle: saline with Tween-80.
Where [11] appears, read: dose: 100.0 mg/kg/injection, schedule: Q01DX001 (ip), vehicle: saline.
Where [12] appears, read: dose: 200.0 mg/kg/injection, schedule: Q01DX001 (ip), vehicle: saline.
Where [13] appears, read: dose: 400.0 mg/kg/injection, schedule: Q01DX001 (ip), vehicle: saline.

Structures are written as SMILES. Values joined by “and” are separate entries in the source; they are usually repeats but may differ in a detail not shown here. Equal values may be shown once. Inconclusive results and toxic doses are left out.

Regarding `CC(C)CCCC(C)C1CCC2C3CCC4CC(I)CCC4(C)C3CCC12C` (configuration not stated), the T/C was 93 % of control (dose: 100.0 mg/kg/injection, schedule: Q01DX001 (ip), vehicle: saline with Tween-80); 95 % of control (dose: 200.0 mg/kg/injection, schedule: Q01DX001 (ip), vehicle: saline with Tween-80); 90 % of control (dose: 400.0 mg/kg/injection, schedule: Q01DX001 (ip), vehicle: saline with Tween-80).
For the compound `COc1ccc(CCC2(C=O)CNCN2)cc1` (configuration not stated), the T/C runs as follows: under setting [1], 98 % of control; under setting [2], 93 % of control.
Regarding `CCSC(C(OC(C)=O)C(OC(C)=O)C(OC(C)=O)C(COC(C)=O)OC(C)=O)n1cc(C)c(=O)[nH]c1=O` (configuration not stated), the T/C by setting is: (dose: 50.0 mg/kg/injection, schedule: Q01DX001 (ip), vehicle: carboxymethylcellulose (CMC)) 100 % of control and 97 % of control; (dose: 100.0 mg/kg/injection, schedule: Q01DX001 (ip), vehicle: carboxymethylcellulose (CMC)) 97 % of control and 94 % of control; (dose: 200.0 mg/kg/injection, schedule: Q01DX001 (ip), vehicle: carboxymethylcellulose (CMC)) 100 % of control; (dose: 400.0 mg/kg/injection, schedule: Q01DX001 (ip), vehicle: carboxymethylcellulose (CMC)) 100 % of control and 103 % of control.
Regarding `COc1cc2c(cc1OC)[C@H]1CNC[C@H]1[C@@H](c1ccccc1)C2`, the T/C by setting is: under setting [3], 95 % of control; under setting [4], 106 % of control; under setting [5], 97 % of control; under setting [6], 106 % of control; under setting [7], 106 % of control.
As to `CCCCCCCCCCOP(=S)(N1CC1)N1CC1`, the T/C was 107 % of control (dose: 2.5 mg/kg/injection, schedule: Q01DX Z (ip), vehicle: carboxymethylcellulose (CMC)); 118 % of control (dose: 5.0 mg/kg/injection, schedule: Q01DX Z (ip), vehicle: carboxymethylcellulose (CMC)); 232 % of control and 260 % of control (dose: 20.0 mg/kg/injection, schedule: Q01DX Z (ip), vehicle: carboxymethylcellulose (CMC)); 150 % of control (dose: 40.0 mg/kg/injection, schedule: Q01DX Z (ip), vehicle: carboxymethylcellulose (CMC)).
Take `Cc1nc(N)nc(N)c1CCCCc1ccc(N)cc1`: the T/C is, setting by setting: (dose: 100.0 mg/kg/injection, schedule: Q01DX001 (ip), vehicle: Klucel (hydroxypropylcellulose) (HPC)) 92 % of control; (dose: 200.0 mg/kg/injection, schedule: Q01DX001 (ip), vehicle: Klucel (hydroxypropylcellulose) (HPC)) 101 % of control.
Turning to `CCOC(=O)NC(=S)Nc1ncn[nH]1`, the T/C was 96 % of control under setting [5]; 97 % of control under setting [7]; 103 % of control (dose: 400.0 mg/kg/injection, schedule: Q04DX003 (ip), vehicle: saline).
Take `CN(Cc1cnc2nc(N)nc(N)c2n1)c1ccc(C(=O)NC(CCC(=O)O)C(=O)O)c(Cl)c1` (configuration not stated): for the setting “dose: 25.0 mg/kg/injection, schedule: Q01DX009 (ip), vehicle: sodium bicarbonate”, the T/C is 154 % of control.
In the case of `O=C(N1CCC2(CC1)SSC1(CCN(C(=O)C(F)(F)F)CC1)S2)C(F)(F)F`, the T/C was 97 % of control under setting [8], 97 % of control under setting [9] and 95 % of control under setting [10].
Consider `COc1ccc(N=Cc2cc(Br)ccc2O)cc1`, for which the T/C by setting is: (dose: 100.0 mg/kg/injection, schedule: Q04DX002 (ip), vehicle: saline with Tween-80) 100 % of control; (dose: 200.0 mg/kg/injection, schedule: Q04DX002 (ip), vehicle: saline with Tween-80) 104 % of control; (dose: 400.0 mg/kg/injection, schedule: Q04DX002 (ip), vehicle: saline with Tween-80) 100 % of control.
As to `CN(Cc1ccccc1Cl)C(=O)Nc1cccc(Cl)c1`, the T/C is 97 % of control (dose: 100.0 mg/kg/injection, schedule: Q01DX009 (ip), vehicle: Klucel (hydroxypropylcellulose) (HPC)); 103 % of control (dose: 200.0 mg/kg/injection, schedule: Q01DX009 (ip), vehicle: Klucel (hydroxypropylcellulose) (HPC)); 114 % of control (dose: 400.0 mg/kg/injection, schedule: Q01DX009 (ip), vehicle: Klucel (hydroxypropylcellulose) (HPC)).
As for `O=C1/C(=C/c2ccccc2)SC(=S)N1C1OC(CO)C(O)C(O)C1O` (configuration not stated), the T/C is 98 % of control (dose: 12.5 mg/kg/injection, schedule: Q01DX005 (ip), vehicle: other); 98 % of control (dose: 25.0 mg/kg/injection, schedule: Q01DX005 (ip), vehicle: other); 106 % of control (dose: 50.0 mg/kg/injection, schedule: Q01DX005 (ip), vehicle: other); 101 % of control (dose: 100.0 mg/kg/injection, schedule: Q01DX005 (ip), vehicle: other); 98 % of control (dose: 200.0 mg/kg/injection, schedule: Q01DX005 (ip), vehicle: other).
Regarding `CN(C)c1ccc(Cc2ccc(N(C)C)cc2)cc1`, the T/C under setting [8] is 96 % of control, the T/C under setting [9] is 94 % of control and the T/C under setting [10] is 86 % of control.
`COC1=CC23CCCN2CCc2cc4c(cc2C3C1OC(C)=O)OCO4` (configuration not stated): the T/C is 106 % of control (dose: 25.0 mg/kg/injection, schedule: Q01DX009 (ip), vehicle: saline); 106 % of control under setting [3]; 102 % of control under setting [4].
As for `CC(C)(C)C(=O)C/C=N/Nc1ccc([N+](=O)[O-])cc1[N+](=O)[O-]`, the T/C is, setting by setting: under setting [11], 96 % of control; under setting [12], 106 % of control; under setting [13], 100 % of control.
Regarding `COc1ccccc1NC(=O)NCc1cccc2ccccc12`, the T/C by setting is: (dose: 100.0 mg/kg/injection, schedule: Q04DX002 (ip), vehicle: Klucel (hydroxypropylcellulose) (HPC)) 107 % of control; (dose: 200.0 mg/kg/injection, schedule: Q04DX002 (ip), vehicle: Klucel (hydroxypropylcellulose) (HPC)) 104 % of control; (dose: 400.0 mg/kg/injection, schedule: Q04DX002 (ip), vehicle: Klucel (hydroxypropylcellulose) (HPC)) 100 % of control.
With `Cc1ccc(C2CCCN(C)O2)cc1` (configuration not stated), the T/C under setting [11] is 102 % of control, the T/C under setting [12] was 101 % of control and the T/C under setting [13] is 93 % of control.
With `COc1cc2ccc3c(c2cc1OC)CCc1cnoc1-3`, the T/C is 95 % of control (dose: 100.0 mg/kg/injection, schedule: Q04DX003 (ip), vehicle: saline with Tween-80); 98 % of control (dose: 200.0 mg/kg/injection, schedule: Q04DX003 (ip), vehicle: saline with Tween-80); 98 % of control (dose: 400.0 mg/kg/injection, schedule: Q04DX003 (ip), vehicle: saline with Tween-80).
Consider `[Co+2].[NH-]C(CC(N)=O)C(=O)O.[NH-]C(CC(N)=O)C(=O)O` (configuration not stated), for which the T/C by setting is: (dose: 100.0 mg/kg/injection, schedule: Q04DX002 (ip), vehicle: saline) 108 % of control; (dose: 200.0 mg/kg/injection, schedule: Q04DX002 (ip), vehicle: saline) 86 % of control.
With `CCCCCCCCCCCCCCCC[N+](C)=C(SC)c1ccccc1OC`, the T/C is, setting by setting: (dose: 0.7 mg/kg/injection, schedule: Q01DX009 (ip), vehicle: Klucel (hydroxypropylcellulose) (HPC)) 101 % of control; (dose: 1.5 mg/kg/injection, schedule: Q01DX009 (ip), vehicle: Klucel (hydroxypropylcellulose) (HPC)) 104 % of control; (dose: 1.5 mg/kg/injection, schedule: Q04DX003 (ip), vehicle: Klucel (hydroxypropylcellulose) (HPC)) 95 % of control; (dose: 3.0 mg/kg/injection, schedule: Q01DX009 (ip), vehicle: Klucel (hydroxypropylcellulose) (HPC)) 104 % of control; (dose: 3.0 mg/kg/injection, schedule: Q04DX003 (ip), vehicle: Klucel (hydroxypropylcellulose) (HPC)) 97 % of control.
For the compound `Cc1ccc(S(=O)NOCc2ccccc2)cc1` (configuration not stated), the T/C (dose: 100.0 mg/kg/injection, schedule: Q04DX003 (ip), vehicle: Klucel (hydroxypropylcellulose) (HPC)) is 95 % of control; the T/C (dose: 200.0 mg/kg/injection, schedule: Q04DX003 (ip), vehicle: Klucel (hydroxypropylcellulose) (HPC)) was 105 % of control; the T/C (dose: 400.0 mg/kg/injection, schedule: Q04DX003 (ip), vehicle: Klucel (hydroxypropylcellulose) (HPC)) is 100 % of control.
Take `O=C(OC1CCCCC1)c1ccccc1-c1ccccc1C(=O)OC1CCCCC1`: the T/C under setting [1] is 91 % of control; the T/C under setting [2] is 91 % of control; the T/C (dose: 400.0 mg/kg/injection, schedule: Q01DX001 (ip), vehicle: other) was 86 % of control.
In the case of `CCCC(O)C(CC)CO` (configuration not stated), the T/C under setting [4] was 102 % of control; the T/C under setting [6] is 100 % of control; the T/C (dose: 400.0 mg/kg/injection, schedule: Q01DX009 (ip), vehicle: saline) was 104 % of control.
